Data reported in US10696677B2 (Research Triangle Institute, priority 2016, dated 2020).
Read-outs that look alike come from different tables or passages of the source.

Assays:
MDCK = MDCK BBB Assay; format: in vitro ADME; settings: for % Permeable: MDCK BBB assay
hCB2 = hCB2 (Homo sapiens, UniProt P34972); experiment: radioligand displacement binding at CB2 ([3H]CP55940, membranes of CHO-K1 cells over-expressing receptor)
Procedure: (§1) All compounds were characterized by H^1 NMR and evaluated using a calcium mobilization assay. […] Further characterization of select compounds was performed using radioligand displacement of [3H]1 and equilibrium dissociation constant (Ki) values were determined.

hCB1 = hCB1 (Homo sapiens, UniProt P21554); experiment: radioligand displacement binding at CB1 (membranes of CHO-K1 cells over-expressing receptor)
hCB1, sequence (P21554 whole entry): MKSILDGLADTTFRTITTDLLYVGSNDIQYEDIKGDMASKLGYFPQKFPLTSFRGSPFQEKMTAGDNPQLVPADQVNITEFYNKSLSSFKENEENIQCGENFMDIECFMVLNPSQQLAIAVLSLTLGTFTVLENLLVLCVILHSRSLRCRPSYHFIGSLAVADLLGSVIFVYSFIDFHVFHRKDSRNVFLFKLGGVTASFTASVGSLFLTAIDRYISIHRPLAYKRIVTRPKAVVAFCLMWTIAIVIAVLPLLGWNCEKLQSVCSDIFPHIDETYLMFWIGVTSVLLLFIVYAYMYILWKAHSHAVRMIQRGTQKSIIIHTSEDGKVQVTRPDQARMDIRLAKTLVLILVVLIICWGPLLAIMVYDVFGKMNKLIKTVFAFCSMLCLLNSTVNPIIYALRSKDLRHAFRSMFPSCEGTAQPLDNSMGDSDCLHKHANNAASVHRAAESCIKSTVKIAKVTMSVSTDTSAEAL
Procedure: as §1

hCB2, sequence (P34972 whole entry): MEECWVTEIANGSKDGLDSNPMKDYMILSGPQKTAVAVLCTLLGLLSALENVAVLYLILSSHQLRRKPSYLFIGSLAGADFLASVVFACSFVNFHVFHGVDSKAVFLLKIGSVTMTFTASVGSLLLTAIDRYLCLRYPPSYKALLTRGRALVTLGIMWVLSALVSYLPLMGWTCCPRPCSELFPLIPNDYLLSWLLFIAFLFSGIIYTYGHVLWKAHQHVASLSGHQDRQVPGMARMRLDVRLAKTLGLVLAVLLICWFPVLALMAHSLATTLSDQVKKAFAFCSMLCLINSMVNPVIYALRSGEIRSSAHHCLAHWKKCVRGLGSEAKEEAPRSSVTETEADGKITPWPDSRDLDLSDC

Compound | melting point [°C] | further results
CCS(=O)(=O)N1CCN(c2ncnc3c2nc(-c2ccccc2Cl)n3-c2ccc(Cl)cc2)CC1 [Compound 78, 8-(2-Chlorophenyl)-9-(4-chlorophenyl)-6-[4-(ethylsulfonyl)piperazin-1-yl]-9H-purine] |  | % Permeable (MDCK): 18%; Ki (hCB2; read-out: Binding affinity (Ki) at hCB2, displacement of [3H]CP55940, CHO-K1 membranes, average of 3-6 measurements): 980 nM; Ki (hCB1): 2.7 nM
N#Cc1ccccc1N1CCN(c2ncnc3c2nc(-c2ccccc2Cl)n3-c2ccc(Cl)cc2)CC1 [Compound 74, 2-{4-[8-(2-Chlorophenyl)-9-(4-chlorophenyl)-9H-purin-6-yl]piperazin-1-yl}benzonitrile] |  | % Permeable (MDCK): 0%
Clc1ccc(CN2CCN(c3ncnc4c3nc(-c3ccccc3Cl)n4-c3ccc(Cl)cc3)CC2)cc1 [Compound 77, 6-[4-(4-Chlorobenzyl)piperazin-1-yl]-8-(2-chlorophenyl)-9-(4-chlorophenyl)-9H-purine] |  | % Permeable (MDCK): ~100%
COc1ccc(N2CCN(c3ncnc4c3nc(-c3ccccc3Cl)n4-c3ccc(Cl)cc3)CC2)cc1 [Compound 72, 8-(2-Chlorophenyl)-9-(4-chlorophenyl)-6-[4-(4-methoxyphenyl)piperazin-1-yl]-9H-purine] |  | % Permeable (MDCK): 0%
FC(F)(F)c1ccccc1CN1CCN(c2ncnc3c2nc(-c2ccccc2Cl)n3-c2ccc(Cl)cc2)CC1 [Compound 111, 8-(2-Chlorophenyl)-9-(4-chlorophenyl)-6-{4-[2-(trifluoromethyl)benzyl]piperazin-1-yl}-9H-purine] | 119 to 121 | 
O=S(=O)(NC1CCN(c2ncnc3c2nc(-c2ccccc2Cl)n3-c2ccc(OC(F)F)nc2)CC1)c1ccc(F)c(F)c1 [Compound 8, N-{1-[8-(2-Chlorophenyl)-9-[6-(difluoromethoxy)pyridin-3-yl]-9H-purin-6-yl]piperidin-4-yl}-3,4-difluorobenzene-1-sulfonamide] | 212 to 213 | 
O/N=C(\c1ccc(F)cc1)C1CCN(c2ncnc3c2nc(-c2ccccc2Cl)n3-c2ccc(Cl)cc2)CC1 [Compound 28, (Z)-{1-[8-(2-chlorophenyl)-9-(4-chlorophenyl)-9H-purin-6-yl]piperidin-4-yl}(4-fluorophenyl)methanone oxime] |  | Ki (hCB2): 11000 nM; Ki (hCB1): 3 nM
Cc1ccccc1CN1CCN(c2ncnc3c2nc(-c2ccccc2Cl)n3-c2ccc(Cl)cc2)CC1 [Compound 100, 8-(2-Chlorophenyl)-9-(4-chlorophenyl)-6-[4-(2-methylbenzyl)piperazin-1-yl]-9H-purine] |  | Ki (hCB2): 1250 nM
Clc1ccc(-n2c(-c3ccccc3Cl)nc3c(N4CCN(c5ccccn5)CC4)ncnc32)cc1 [Compound 67, 8-(2-Chlorophenyl)-9-(4-chlorophenyl)-6-(4-pyridin-2-ylpiperazin-1-yl)-9H-purine] |  | % Permeable (MDCK): 0%
Cc1cc(-n2c(-c3ccccc3Cl)nc3c(N4CCC(NS(=O)(=O)c5ccc(F)c(F)c5)CC4)ncnc32)no1 [Compound 11, N-{1-[8-(2-Chlorophenyl)-9-(5-methyl-1,2-oxazol-3-yl)-9H-purin-6-yl]piperidin-4-yl}-3,4-difluorobenzene-1-sulfonamide] | 180 to 182 | 
N#Cc1ccccc1CN1CCN(c2ncnc3c2nc(-c2ccccc2Cl)n3-c2ccc(Cl)cc2)CC1 [Compound 75, 6-[4-(2-Cyanobenzyl)piperazin-1-yl]-8-(2-chlorophenyl)-9-(4-chlorophenyl)-9H-purine] | 127 to 128 | 
CC(C)(C)OC(=O)N1CCN(c2ncnc3c2nc(-c2ccccc2Cl)n3-c2ccc(Cl)cc2)CC1 [Compound 58, tert-Butyl 4-[8-(2-Chlorophenyl)-9-(4-chlorophenyl)-9H-purin-6-yl]piperazine-1-carboxylate] |  | % Permeable (MDCK): 3%; Ki (hCB2): 3350 nM
Cn1ccc(-n2c(-c3ccccc3Cl)nc3c(N4CCC(NS(=O)(=O)c5ccc(F)c(F)c5)CC4)ncnc32)n1 [Compound 13, N-{1-[8-(2-Chlorophenyl)-9-(1-methyl-1H-pyrazol-3-yl)-9H-purin-6-yl]piperidin-4-yl}-3,4-difluorobenzene-1-sulfonamide] | 206 to 208 | 
O=C(Nc1ccccc1)NC1CCN(c2ncnc3c2nc(-c2ccccc2Cl)n3-c2ccc(Cl)cc2)CC1 [Compound 18, 3-{1-[8-(2-Chlorophenyl)-9-(4-chlorophenyl)-9H-purin-6-yl]piperidin-4-yl}-1-phenylurea] |  | % Permeable (MDCK): 0%
O=S(=O)(NC1CCN(c2ncnc3c2nc(-c2ccccc2Cl)n3-c2ccc(C(F)(F)F)nc2)CC1)c1ccc(F)c(F)c1 [Compound 10, N-{1-[8-(2-Chlorophenyl)-9-[6-(trifluoromethyl)pyridin-3-yl]-9H-purin-6-yl]piperidin-4-yl}-3,4-difluorobenzene-1-sulfonamide] | 214 to 215 | 
Cc1c(CN2CCN(c3ncnc4c3nc(-c3ccccc3Cl)n4-c3ccc(Cl)cc3)CC2)cnn1C [Compound 114, 8-(2-Chlorophenyl)-9-(4-chlorophenyl)-6-{4-[(1,5-dimethyl-1H-pyrazol-4-yl)methyl]piperazin-1-yl}-9H-purine] | 138 to 139 | 
N=C(Nc1ccc(F)cc1)N1CCN(c2ncnc3c2nc(-c2ccccc2Cl)n3-c2ccc(Cl)cc2)CC1 [Compound 116, 4-[8-(2-chlorophenyl)-9-(4-chlorophenyl)-9H-purin-6-yl]-N-(4-fluorophenyl)piperazine-1-carboximidamide] |  | Ki (hCB2): > 6000 nM

Continued, in another order:

melting point [°C] | Compound | further results
228 to 229 | O=C(NC1CCN(c2ncnc3c2nc(-c2ccccc2Cl)n3-c2ccc(Cl)cc2)CC1)NC1CCC(F)(F)CC1 [Compound 124, 3-{1-[8-(2-Chlorophenyl)-9-(4-chlorophenyl)-9H-purin-6-yl]piperidin-4-yl}-1-(4,4-difluorocyclohexyl)urea] | 
140 to 142 | O=C(Nc1ccc(C(F)(F)F)nc1)NC1CCN(c2ncnc3c2nc(-c2ccccc2Cl)n3-c2ccc(Cl)cc2)CC1 [Compound 24, 3-{1-[8-(2-Chlorophenyl)-9-(4-chlorophenyl)-9H-purin-6-yl]piperidin-4-yl}-1-[6-(trifluoromethyl)pyridin-3-yl]urea] | 
140 to 142 | O=C(Nc1ccc(F)cc1F)NC1CCN(c2ncnc3c2nc(-c2ccccc2Cl)n3-c2ccc(Cl)cc2)CC1 [Compound 22, 3-{1-[8-(2-Chlorophenyl)-9-(4-chlorophenyl)-9H-purin-6-yl]piperidin-4-yl}-1-(2,4-difluorophenyl)urea] | 
141 to 143 | O=C(NCC1CCCCC1)NC1CCN(c2ncnc3c2nc(-c2ccccc2Cl)n3-c2ccc(OC(F)F)nc2)CC1 [Compound 17, 3-{1-[8-(2-Chlorophenyl)-9-[6-(difluoromethoxy)pyridin-3-yl]-9H-purin-6-yl]piperidin-4-yl}-1-(cyclohexylmethyl)urea] | 
192 to 193 | CCCCC(=O)NC1CCN(c2ncnc3c2nc(-c2ccccc2Cl)n3-c2ccc(C(F)(F)F)nc2)CC1 [Compound 14, N-{1-[8-(2-Chlorophenyl)-9-[6-(trifluoromethyl)pyridin-3-yl]-9H-purin-6-yl]piperidin-4-yl}pentanamide] | 
230 to 232 | O=C(NCC1CCCCC1)NC1CCN(c2ncnc3c2nc(-c2ccccc2Cl)n3-c2ccc(C(F)(F)F)nc2)CC1 [Compound 16, 3-{1-[8-(2-Chlorophenyl)-9-[6-(trifluoromethyl)pyridin-3-yl]-9H-purin-6-yl]piperidin-4-yl}-1-(cyclohexylmethyl)urea] | 
183 to 184 | O=S(=O)(NC1CCN(c2ncnc3c2nc(-c2ccccc2Cl)n3-c2ccc(Cl)cc2)CC1)c1ccc(F)c(F)c1 [Compound 7, N-{1-[8-(2-Chlorophenyl)-9-(4-chlorophenyl)-9H-purin-6-yl]piperidin-4-yl}-3,4-difluorobenzene-1-sulfonamide] | % Permeable (MDCK): 0%; MDCK BBB Assay (Basolateral/Apical Peak Area Ratio) Mean (MDCK; MDCK cells): 0
227 to 228 | O=C(Nc1ccccc1F)NC1CCN(c2ncnc3c2nc(-c2ccccc2Cl)n3-c2ccc(C(F)(F)F)nc2)CC1 [Compound 20, 3-{1-[8-(2-Chlorophenyl)-9-[6-(trifluoromethyl)pyridin-3-yl]-9H-purin-6-yl]piperidin-4-yl}-1-(2-fluorophenyl)urea] | 
230 to 231 | Cc1cc(NC(=O)N2CCN(c3ncnc4c3nc(-c3ccccc3Cl)n4-c3ccc(Cl)cc3)CC2)no1 [Compound 50] | 
135 to 137 | O=C(NCC1CCC(F)(F)CC1)NC1CCN(c2ncnc3c2nc(-c2ccccc2Cl)n3-c2ccc(Cl)cc2)CC1 [Compound 127, 3-{1-[8-(2-Chlorophenyl)-9-(4-chlorophenyl)-9H-purin-6-yl]piperidin-4-yl}-1-[(4,4-difluorocyclohexyl)methyl]urea] | 
175 to 177 | CC1(NC(=O)NC2CCC(F)(F)CC2)CCN(c2ncnc3c2nc(-c2ccccc2Cl)n3-c2ccc(Cl)cc2)CC1 | 
160 to 162 | CC1(NC(=O)NC2CCN(c3ncnc4c3nc(-c3ccccc3Cl)n4-c3ccc(Cl)cc3)CC2)CCC(F)(F)CC1 [Compound 126, 3-{1-[8-(2-Chlorophenyl)-9-(4-chlorophenyl)-9H-purin-6-yl]piperidin-4-yl}-1-(4,4-difluoro-1-methylcyclohexyl)urea] | 
140 to 142 | O=C(Nc1ccccc1F)NC1CCN(c2ncnc3c2nc(-c2ccccc2Cl)n3-c2ccc(OC(F)F)nc2)CC1 [Compound 21, 3-{1-[8-(2-Chlorophenyl)-9-[6-(difluoromethoxy)pyridin-3-yl]-9H-purin-6-yl]piperidin-4-yl}-1-(2-fluorophenyl)urea] | 
184 to 185 | O=C(NCc1ccc(F)cc1)NC1CCN(c2ncnc3c2nc(-c2ccccc2Cl)n3-c2ccc(Cl)cc2)CC1 [Compound 128, 3-{1-[8-(2-Chlorophenyl)-9-(4-chlorophenyl)-9H-purin-6-yl]piperidin-4-yl}-1-[(4-fluorophenyl)methyl]urea] | 
